These results are taken from ChEMBL document CHEMBL1125512, “Synthesis and antiviral activity of methyl derivatives of 9-[2-(phosphonomethoxy)ethyl]guanine” (J Med Chem, 1992).

One data set relates to MRC5. The data set can be described thus: In vitro antiherpesvirus activity against MRC-5 cells infected with HCMV (AD-169 strain). The data set is classed as functional, cell-based. The following applies: Homo sapiens.
A further data set concerns Vero. The data set can be described thus: In vitro antiherpesvirus activity against vero cells infected with HSV-2(G strain)[plaque reduction assay]. The data set is classed as functional, cell-based. The following applies: Chlorocebus sabaeus.
Data set [1] can be described thus: In vitro cellular toxicity in vero cells. The following applies: read-out: TC50 (the source's name). The data set is classed as cell-based.
Data set [2] is described as follows: Toxicity in vitro against CEM cells by XTT assay. The data set is classed as cell-based. The following applies: human, CCRF-CEM (CEM) cells; read-out: TC50 (the source's name).
Data set [3] can be described thus: Selectivity Index is the ratio of the TC50 to EC50. The following applies: read-out: Selectivity index.
For data set [4], the system named is CCRF-CEM. The data set can be described thus: In vitro anti -HIV activity tested against CEM cells infected with HIV by XTT assay. The data set is classed as functional, cell-based. The following applies: Homo sapiens.
Data set [5] is described as follows: In vitro cellular toxicity in WI-38 cells. The data set is classed as cell-based. The following applies: human, read-out: TC50 (the source's name).
Data set [6] can be described thus: In vitro cellular toxicity in MRC-5 cells. The data set is classed as cell-based, MRC5. The following applies: human, read-out: TC50 (the source's name).
The subject of data set [7] is CCRF-CEM. Kind of data set: In vitro CEM cell growth inhibition by measuring the number of cells after treatment for 72 hours. The data set is classed as functional. The following applies: Homo sapiens.

Each structure is given as a SMILES string. A value given as a limit tells only on which side of the number the result lay.

In turn, `Nc1nc2c(ncn2COC(CO)CO)c(=O)[nH]1` [GANCICLOVIR] registered a half-maximal inhibitory concentration (IC50) with MRC5 of 4 µM.
In the case of `CC(C)(OCCn1cnc2c(O)nc(N)nc21)P(=O)(O)O`, in the data set with Vero, the IC50 is > 300 µM. Further, the CC50 in data set [1] (chlorocebus sabaeus) was > 330 µM.
With `CC(OCCn1cnc2c(O)nc(N)nc21)P(=O)(O)O` (stereo not drawn), in the data set with Vero, half-maximal inhibition (IC50) was put at 158 µM. The CC50 in [2] was > 100 µM; in data set [1] (chlorocebus sabaeus), > 330 µM. In addition, the selectivity ratio in [3] is > 1. For the same molecule, the half-maximal effective concentration (EC50) in the data set on CCRF-CEM [4] is > 100 µM.
In the case of `CC(C)(Cn1cnc2c(O)nc(N)nc21)OCP(=O)(O)O`, the IC50 in the data set with Vero and in the data set with MRC5 was > 300 µM throughout. The CC50 in data set [2] is > 100 µM; in [5], > 330 µM. Besides, in data set [3], the selectivity ratio was > 38. Moreover, the EC50 in the data set on CCRF-CEM [4] worked out at 2.6 µM.
On to `CC(COCP(=O)(O)O)n1cnc2c(O)nc(N)nc21` (stereo not drawn), for which the IC50 in the data set on Vero is 11 µM; in the data set with MRC5 it was 1.3 µM. The CC50 in data set [2] was 250 µM; in data set [6], > 300 µM; in [1] (chlorocebus sabaeus) it was 200 µM. Further, in [3], the selectivity ratio was 25. For the same molecule, the EC50 in the data set with CCRF-CEM [4] worked out at 5 µM.
In the case of `Cc1nc2c(O)nc(N)nc2n1CCOCP(=O)(O)O`, in the data set with Vero, half-maximal inhibition (IC50) required 172 µM. Moreover, the CC50 in data set [2] is > 100 µM; in [1] (chlorocebus sabaeus), > 330 µM. Further, the selectivity ratio in data set [3] was > 1. The EC50 in the data set with CCRF-CEM [4] is > 100 µM.
Turning to `Nc1nc2c(ncn2CCOCP(=O)(O)O)c(=O)[nH]1` [GS-438], the IC50 with Vero is 1.1 µM; in the data set on MRC5 it was 0.09 µM. The CC50 was 15 µM in data set [2], 0.2 µM in the data set with CCRF-CEM [7], 30 µM in data set [6] and 17 µM in [1]. Further, the selectivity ratio in data set [3] turned out to be 75. Further, the EC50 in the data set on CCRF-CEM [4] is 0.2 µM.
On to `C[C@H](Cn1cnc2c(O)nc(N)nc21)OCP(=O)(O)O`, for which the IC50 worked out at 82 µM in the data set on Vero and 16 µM with MRC5. Also, the CC50 in data set [2] was > 500 µM; in the data set on CCRF-CEM [7], 180 µM; in [6] it was > 330 µM; in data set [1] (chlorocebus sabaeus), > 330 µM. In addition, the selectivity ratio in data set [3] was > 500. Moreover, the response with CCRF-CEM [4] was half-maximal at 1 µM (EC50).
Take `Nc1ncnc2c1ncn2CCOCP(=O)(O)O` [ADEFOVIR]: in data set [2], the CC50 was > 500 µM. Also, the selectivity ratio in data set [3] was > 27. The molecule also came in with an EC50 in the data set with CCRF-CEM [4] of 18 µM.
As for `Nc1nc(O)c2ncn(CC(CO)OCP(=O)(O)O)c2n1` (single isomer, unassigned; form 2), the 50% inhibitory concentration (IC50) was 97 µM in the data set on Vero and 0.8 µM in the data set on MRC5. For the same molecule, the CC50 in data set [2] was 350 µM; in [6], > 310 µM; in [1] (chlorocebus sabaeus), > 310 µM. Moreover, in data set [3], the selectivity ratio was < 1. The EC50 with CCRF-CEM [4] is > 500 µM.
`Nc1nc2c(ncn2COCCO)c(=O)[nH]1` [ACYCLOVIR]: the IC50 with Vero stood at 1.2 µM.
In the case of `C[C@@H](Cn1cnc2c(O)nc(N)nc21)OCP(=O)(O)O`, the figures for the IC50 in the data set on Vero and with MRC5 were 43 µM and 16 µM, respectively. For the same molecule, the CC50 in data set [2] was 300 µM; in the data set with CCRF-CEM [7], 12 µM; in [6], > 330 µM; in data set [1] (chlorocebus sabaeus) it was > 330 µM. In data set [3], the selectivity ratio was 25. This molecule also yielded an EC50 in the data set on CCRF-CEM [4] of 12 µM.
For the molecule `Nc1nc2c(ncn2CC(CO)OCP(=O)(O)O)c(=O)[nH]1` (single isomer, unassigned; form 1), the figures for the IC50 in the data set with Vero and with MRC5 were 99 µM and 1.6 µM, respectively. For the same molecule, the figures for the CC50 in [2], in data set [6] and in data set [1] (chlorocebus sabaeus) were > 500 µM, > 310 µM and > 310 µM, respectively. Further, the selectivity ratio in data set [3] was > 1. The same molecule gave an EC50 in the data set with CCRF-CEM [4] of 500 µM.
